US7396837B2, “Antitumoral analogs of lamellarins” (Pharma Mar, S.A.U., priority 2002, dated 2008)

Tested on: LoVo-Dox
Test: SRB colorimetric cell growth inhibition assay, LoVo-Dox (MDR)
Format: cell-based
Conditions: Homo sapiens, LOVO-DOX; GI=growth inhibition; read-out: GI50 LOVO-DOX
In short: (§1)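 Continuous drug exposure of human cancer cells; SRB protein stain read-out; triplicate wells, mean ± SD; GI, TGI, LC computed.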

Compound | GI50
COc1cc(-c2c3c4cc(OC)c(OC(=O)[C@@H](N)Cc5ccccc5)cc4oc(=O)c3n3ccc4cc(OC(=O)[C@@H](N)Cc5ccccc5)c(OC)cc4c23)ccc1OC(=O)[C@@H](N)Cc1ccccc1 [Compound 204] | 160 nM

Same assay, conditions: Homo sapiens, LOVO-DOX; cell killing (cytotoxic effect); read-out: LC50 LOVO-DOX

Compound | CC50
COc1cc(-c2c3c4cc(OC)c(OC(=O)[C@@H](N)Cc5ccccc5)cc4oc(=O)c3n3ccc4cc(OC(=O)[C@@H](N)Cc5ccccc5)c(OC)cc4c23)ccc1OC(=O)[C@@H](N)Cc1ccccc1 [Compound 204] | 9520 nM

Same assay, conditions: Homo sapiens, LOVO-DOX; total growth inhibition (cytostatic effect); read-out: TGI LOVO-DOX

Compound | IC (TGI)
COc1cc(-c2c3c4cc(OC)c(OC(=O)[C@@H](N)Cc5ccccc5)cc4oc(=O)c3n3ccc4cc(OC(=O)[C@@H](N)Cc5ccccc5)c(OC)cc4c23)ccc1OC(=O)[C@@H](N)Cc1ccccc1 [Compound 204] | 6340 nM

Tested on: IGROV
Test: SRB colorimetric cell growth inhibition assay, IGROV
Format: cell-based
Conditions: Homo sapiens, IGROV; GI=growth inhibition; read-out: GI50 IGROV
In short: as §1

Compound | GI50
COc1cc(-c2c3c4cc(OC)c(OC(=O)[C@@H](N)Cc5ccccc5)cc4oc(=O)c3n3ccc4cc(OC(=O)[C@@H](N)Cc5ccccc5)c(OC)cc4c23)ccc1OC(=O)[C@@H](N)Cc1ccccc1 [Compound 204] | 23.8 nM

Same assay, conditions: Homo sapiens, IGROV; cell killing (cytotoxic effect); read-out: LC50 IGROV

Compound | CC50
COc1cc(-c2c3c4cc(OC)c(OC(=O)[C@@H](N)Cc5ccccc5)cc4oc(=O)c3n3ccc4cc(OC(=O)[C@@H](N)Cc5ccccc5)c(OC)cc4c23)ccc1OC(=O)[C@@H](N)Cc1ccccc1 [Compound 204] | 526 nM

Same assay, conditions: Homo sapiens, IGROV; total growth inhibition (cytostatic effect); read-out: TGI IGROV

Compound | IC (TGI)
COc1cc(-c2c3c4cc(OC)c(OC(=O)[C@@H](N)Cc5ccccc5)cc4oc(=O)c3n3ccc4cc(OC(=O)[C@@H](N)Cc5ccccc5)c(OC)cc4c23)ccc1OC(=O)[C@@H](N)Cc1ccccc1 [Compound 204] | 113 nM

Tested on: DU-145
Test: SRB colorimetric cell growth inhibition assay, DU-145
Format: cell-based
Conditions: Homo sapiens, DU-145, DU-145; GI=growth inhibition; read-out: GI50 DU-145
In short: as §1

Compound | GI50
COc1cc(-c2c3c4cc(OC)c(OC(=O)[C@@H](N)Cc5ccccc5)cc4oc(=O)c3n3ccc4cc(OC(=O)[C@@H](N)Cc5ccccc5)c(OC)cc4c23)ccc1OC(=O)[C@@H](N)Cc1ccccc1 [Compound 204] | 5.63 nM

Same assay, conditions: Homo sapiens, DU-145, DU-145; cell killing (cytotoxic effect); read-out: LC50 DU-145

Compound | CC50
COc1cc(-c2c3c4cc(OC)c(OC(=O)[C@@H](N)Cc5ccccc5)cc4oc(=O)c3n3ccc4cc(OC(=O)[C@@H](N)Cc5ccccc5)c(OC)cc4c23)ccc1OC(=O)[C@@H](N)Cc1ccccc1 [Compound 204] | 44.7 nM

Same assay, conditions: Homo sapiens, DU-145, DU-145; total growth inhibition (cytostatic effect); read-out: TGI DU-145

Compound | IC (TGI)
COc1cc(-c2c3c4cc(OC)c(OC(=O)[C@@H](N)Cc5ccccc5)cc4oc(=O)c3n3ccc4cc(OC(=O)[C@@H](N)Cc5ccccc5)c(OC)cc4c23)ccc1OC(=O)[C@@H](N)Cc1ccccc1 [Compound 204] | 17.4 nM

Tested on: LNCaP
Test: SRB colorimetric cell growth inhibition assay, LNCaP
Format: cell-based
Conditions: Homo sapiens, LNCaP, LN-caP; GI=growth inhibition; read-out: GI50 LN-caP
In short: as §1

Compound | GI50
COc1cc(-c2c3c4cc(OC)c(OC(=O)[C@@H](N)Cc5ccccc5)cc4oc(=O)c3n3ccc4cc(OC(=O)[C@@H](N)Cc5ccccc5)c(OC)cc4c23)ccc1OC(=O)[C@@H](N)Cc1ccccc1 [Compound 204] | 79 nM

Same assay, conditions: Homo sapiens, LNCaP, LN-caP; cell killing (cytotoxic effect); read-out: LC50 LN-caP

Compound | CC50
COc1cc(-c2c3c4cc(OC)c(OC(=O)[C@@H](N)Cc5ccccc5)cc4oc(=O)c3n3ccc4cc(OC(=O)[C@@H](N)Cc5ccccc5)c(OC)cc4c23)ccc1OC(=O)[C@@H](N)Cc1ccccc1 [Compound 204] | 597 nM

Same assay, conditions: Homo sapiens, LNCaP, LN-caP; total growth inhibition (cytostatic effect); read-out: TGI LN-caP

Compound | IC (TGI)
COc1cc(-c2c3c4cc(OC)c(OC(=O)[C@@H](N)Cc5ccccc5)cc4oc(=O)c3n3ccc4cc(OC(=O)[C@@H](N)Cc5ccccc5)c(OC)cc4c23)ccc1OC(=O)[C@@H](N)Cc1ccccc1 [Compound 204] | 229 nM

Tested on: A-549
Test: SRB colorimetric cell growth inhibition assay, A-549
Format: cell-based
Conditions: Homo sapiens, A549, A-549; GI=growth inhibition; read-out: GI50 A-549
In short: as §1

Compound | GI50
COc1cc(-c2c3c4cc(OC)c(OC(=O)[C@@H](N)Cc5ccccc5)cc4oc(=O)c3n3ccc4cc(OC(=O)[C@@H](N)Cc5ccccc5)c(OC)cc4c23)ccc1OC(=O)[C@@H](N)Cc1ccccc1 [Compound 204] | 31.1 nM

Same assay, conditions: Homo sapiens, A549, A-549; cell killing (cytotoxic effect); read-out: LC50 A-549

Compound | CC50
COc1cc(-c2c3c4cc(OC)c(OC(=O)[C@@H](N)Cc5ccccc5)cc4oc(=O)c3n3ccc4cc(OC(=O)[C@@H](N)Cc5ccccc5)c(OC)cc4c23)ccc1OC(=O)[C@@H](N)Cc1ccccc1 [Compound 204] | 9520 nM

Same assay, conditions: Homo sapiens, A549, A-549; total growth inhibition (cytostatic effect); read-out: TGI A-549

Compound | IC (TGI)
COc1cc(-c2c3c4cc(OC)c(OC(=O)[C@@H](N)Cc5ccccc5)cc4oc(=O)c3n3ccc4cc(OC(=O)[C@@H](N)Cc5ccccc5)c(OC)cc4c23)ccc1OC(=O)[C@@H](N)Cc1ccccc1 [Compound 204] | 1000 nM

Tested on: LoVo
Test: SRB colorimetric cell growth inhibition assay, LoVo
Format: cell-based
Conditions: Homo sapiens, LoVo; GI=growth inhibition; read-out: GI50 LOVO
In short: as §1

Compound | GI50
COc1cc(-c2c3c4cc(OC)c(OC(=O)[C@@H](N)Cc5ccccc5)cc4oc(=O)c3n3ccc4cc(OC(=O)[C@@H](N)Cc5ccccc5)c(OC)cc4c23)ccc1OC(=O)[C@@H](N)Cc1ccccc1 [Compound 204] | 113 nM

Same assay, conditions: Homo sapiens, LoVo; cell killing (cytotoxic effect); read-out: LC50 LOVO

Compound | CC50
COc1cc(-c2c3c4cc(OC)c(OC(=O)[C@@H](N)Cc5ccccc5)cc4oc(=O)c3n3ccc4cc(OC(=O)[C@@H](N)Cc5ccccc5)c(OC)cc4c23)ccc1OC(=O)[C@@H](N)Cc1ccccc1 [Compound 204] | 463 nM

Same assay, conditions: Homo sapiens, LoVo; total growth inhibition (cytostatic effect); read-out: TGI LOVO

Compound | IC (TGI)
COc1cc(-c2c3c4cc(OC)c(OC(=O)[C@@H](N)Cc5ccccc5)cc4oc(=O)c3n3ccc4cc(OC(=O)[C@@H](N)Cc5ccccc5)c(OC)cc4c23)ccc1OC(=O)[C@@H](N)Cc1ccccc1 [Compound 204] | 228 nM

Tested on: PANC-1
Test: SRB colorimetric cell growth inhibition assay, PANC-1
Format: cell-based
Conditions: Homo sapiens, PANC-1, PANC-1; GI=growth inhibition; read-out: GI50 PANC-1
In short: as §1

Compound | GI50
COc1cc(-c2c3c4cc(OC)c(OC(=O)[C@@H](N)Cc5ccccc5)cc4oc(=O)c3n3ccc4cc(OC(=O)[C@@H](N)Cc5ccccc5)c(OC)cc4c23)ccc1OC(=O)[C@@H](N)Cc1ccccc1 [Compound 204] | 44.7 nM

Same assay, conditions: Homo sapiens, PANC-1, PANC-1; cell killing (cytotoxic effect); read-out: LC50 PANC-1

Compound | CC50
COc1cc(-c2c3c4cc(OC)c(OC(=O)[C@@H](N)Cc5ccccc5)cc4oc(=O)c3n3ccc4cc(OC(=O)[C@@H](N)Cc5ccccc5)c(OC)cc4c23)ccc1OC(=O)[C@@H](N)Cc1ccccc1 [Compound 204] | 392 nM

Same assay, conditions: Homo sapiens, PANC-1, PANC-1; total growth inhibition (cytostatic effect); read-out: TGI PANC-1

Compound | IC (TGI)
COc1cc(-c2c3c4cc(OC)c(OC(=O)[C@@H](N)Cc5ccccc5)cc4oc(=O)c3n3ccc4cc(OC(=O)[C@@H](N)Cc5ccccc5)c(OC)cc4c23)ccc1OC(=O)[C@@H](N)Cc1ccccc1 [Compound 204] | 171 nM
